Tests used:
CYP27 [1] = assay: CYP27 expression in transfected macrophages with demethylation agent; format: cell-based, mouse; details: 0.5 μM, CMV promoter silenced by methylation
Procedure: Red, in D, is the mitochondrial marker dye, green in C, is CYP27.
Macrophages were cultured and transfected the same as for the CHOP cells in Example 1 except that after transfection, 0.5 μM 5-azacytidine was included in all further incubations. […] Panels A and B in FIG. 11 are actually transfected cells, but not treated with 5-azacytidine.

CYP27 [2] = details: promoter studies; cited from earlier work

SMILES | effect on CYP27 expression in transfected macrophages (CYP27 [1]) | regulation of CYP27 expression (CYP27 [2])
Nc1ncn([C@@H]2O[C@H](CO)[C@@H](O)[C@H]2O)c(=O)n1 [5-azacytidine] | expressed CYP27 | –
C[C@H](CCC(=O)O)[C@H]1CC[C@H]2[C@@H]3[C@H](O)C[C@@H]4C[C@H](O)CC[C@]4(C)[C@H]3C[C@H](O)[C@]12C [cholic acid] | – | downregulated

From patent US20070258961A1, “Cholesterol efflux and uses thereof” (priority 2002, published 2007)
